From patent US20040006103A1, “Use of chloroquine, hydroxychloroquine and 4 amino-quinolinic derivatives to obtain a drug for the anti retroviral therapy, active towards HIV sensitive strains and towards HIV strains which are resistant to both nucleosidic and non-nucleosidic reverse transcriptase inhibitors and to proteases …” (VALPHARMA S.A., priority 2002, published 2004)
Like-named read-outs stand apart in the source and are kept apart here.

Tests used:
[1] = system: HIV-1 clinical isolated, characterised by mutations on the protease gene inducing geno-phenotypic resistance to NFV; assay: p24 production susceptibility test (ACTG protocol), Table 10, PBMC; format: cell-based; details: for S.I. CQ: I.C.50/E.C.50; for Fen. CQ (fold): ratio to HIV-IIIB; for EC50: Human immunodeficiency virus 1, PBMC, read-out: E.C.50 CQ
From the text: (§1) For the phenotype of the nucleosidic, non-nucleosidic and proteases inhibitors was utilised a method which consider the use of human PBMC and the protocol standardised by the AIDS Clinical Trials Group, after verifying the genotype by sequence analysis.
(§2) In order to assay in vitro the susceptibility to chloroquine and hydroxychloroquine of the viral strains, it was used the protocol of the ACTG which is characterised by the measure, of the production of antigen p24 in strongly infected cells.
(§3) The susceptibility of the viral strains to chemotherapics was determined in cell cultures, prepared in 96 wells microplates, using, for the infection, 0.1 MOI.
(§4) The supernatant of the infected cultures (either in absence or in presence of different concentrations of chemotherapic) were tested for the production of p24 after 7 days, using an ELISA test which is commercially available.
(§5) The concentrations of chloroquine and hydroxychloroquine tested ranged from 0.5 to 15 uM. At the same time non-infected cells were incubated with concentrations of chloroquine and hydroxychloroquine ranging from 0 to 50 uM to evaluate the toxicity of the compound.
(§6) After 4 day from the infection, half the cellular medium was replaced with a medium containing the corresponding dilution of chloroquine and hydroxychloroquine. The percentage of inhibition of the HIV replication, induced by chloroquine and hydroxychloroquine, was determined, after 7 day from the infection, comparing the levels of p24 of this cultures and that of the control, infected and not treated with chloroquine and hydroxychloroquine.
(§7) Therefore, the E.C.50 of chloroquine and hydroxychloroquine expresses the concentration of chemotherapic that inhibits the 50% of production of p24 and the values were calculated using linear and non linear regression analysis (the significativity for the non linear regression was R^2>0.95).
(§8) In the same experimental conditions and in the same day, but with similar concentrations of chloroquine and hydroxychloroquine, it was evaluated the vitality of the infect cell cultures, and this was expressed as I.C.50.
(§9) I.C.50 (Inhibitory Concentration) indicates the concentration of the chemotherapic agent inhibiting the vitality of the cell cultures at a rate of 50%, when there is not infection.

[2] = system: HIV-1 clinical isolated, characterised by mutations in the protease gene inducing geno-phenotypic resistance to SQV; assay: p24 production susceptibility test (ACTG protocol), Table 8; format: cell-based; details: for EC50: Human immunodeficiency virus 1, PBMC, read-out: E.C.50 CQ; for S.I. CQ / Fen. CQ (fold): PBMC; for S.I. CQ: I.C.50/E.C.50; for Fen. CQ (fold): ratio to HIV-IIIB
From the text: as §1, §2, §3, §4, §5, §6, §7, §8, §9

[3] = system: HIV-1 strains geno-phenotypically resistant to EFV; assay: p24 production susceptibility test, Table 7, MT-2 cells; format: cell-based; details: for EC50: Human immunodeficiency virus 1, MT2, MT-2, read-out: E.C.50 CQ; for S.I. CQ / Fen. CQ (fold): MT-2; for S.I. CQ: I.C.50/E.C.50; for Fen. CQ (fold): ratio to HIV-IIIB
From the text: as §1, §2, §3, §4, §5, §6, §7, §8, §9

[4] = system: HIV clinical isolated, characterised by mutations in the RT gene inducing geno-phenotypic resistance to AZT; assay: p24 production susceptibility test (ACTG protocol), Table 1; format: cell-based, HIV-1; details: for EC50: Human immunodeficiency virus 1, PBMC; for S.I. CQ: I.C.50/E.C.50; for CQ (fold): ratio to HIV-IIIB
From the text: as §1, §2, §3, §4, §5, §6, §7, §8, §9

[5] = system: HIV-1 clinical isolated, characterised by mutations on the protease gene inducing geno-phenotypic resistance to NFV; assay: p24 production susceptibility test, Table 10, H-9 cells; format: cell-based; details: for S.I. CQ / Fen. CQ (fold): H-9; for S.I. CQ: I.C.50/E.C.50; for Fen. CQ (fold): ratio to HIV-IIIB; for EC50: Human immunodeficiency virus 1, H9, H-9, read-out: E.C.50 CQ
From the text: as §1, §2, §3, §4, §5, §6, §7, §8, §9

[6] = system: HIV clinical isolated, characterised by mutations in the RT gene inducing geno-phenotypic resistance to ddI; assay: p24 production susceptibility test (ACTG protocol), Table 2; format: cell-based, HIV-1; details: for EC50: Human immunodeficiency virus 1, PBMC, read-out: E.C.50 CQ; for S.I. CQ / Fen. CQ (fold): PBMC; for S.I. CQ: I.C.50/E.C.50; for Fen. CQ (fold): ratio to HIV-IIIB
From the text: as §1, §2, §3, §4, §5, §6, §7, §8, §9

[7] = PBMC, Gen. D67N K70R T215F K219Q
[8] = PBMC, Gen. D 67 Ns K 70N T215F K219Q
[9] = PBMC, Gen. M41I M184V L210W R221K T215Y
[10] = PBMC, Gen. M41L D67N K70RM 184V T215F
[11] = PBMC, Gen. M41LD 76N K70R T215Y
[12] = Gen M4IL M184V L210W R211KL 214F T215Y

Q: Which results are given for `CCN(CC)CCCC(C)Nc1ccnc2cc(Cl)ccc12` (stereo not drawn) [CQ, chloroquine]?
A: S.I. CQ ([1]; Gen. D30N A71V): 5.5; Fen. CQ (fold) ([1]; Gen. D30N A71V): 1X fold; S.I. CQ ([1]; Gen. D30N M46V A71V): 4; Fen. CQ (fold) ([1]; Gen. D30N M46V A71V): 1.2X fold; S.I. CQ ([1]; Gen. G48V V92A): 3.2; Fen. CQ (fold) ([1]; Gen. G48V V92A): 1.6X fold; S.I. CQ ([1]; Gen. V82F L90M): 3.4; Fen. CQ (fold) ([1]; Gen. V82F L90M): 1.5X fold; EC50 ([1]; Gen. D30N A71V): 1800 nM; EC50 ([1]; Gen. D30N M46V A71V): 2200 nM; EC50 ([1]; Gen. G48V V92A): 3000 nM; EC50 ([1]; Gen. V82F L90M): 2800 nM; EC50 ([2]; Gen. G48V I84V A74V L90M): 1800 nM; EC50 ([2]; Gen. G48V V82A): 3500 nM; EC50 ([2]; Gen. I84V L90M): 2500 nM; EC50 ([2]; Gen. M46I G48V L63P L90M): 2000 nM; EC50 ([2]; Gen. V82A L90M): 1500 nM; S.I. CQ ([2]; Gen. G48V I84V A74V L90M): 5.5; Fen. CQ (fold) ([2]; Gen. G48V I84V A74V L90M): 1X fold; S.I. CQ ([2]; Gen. G48V V82A): 3.4; Fen. CQ (fold) ([2]; Gen. G48V V82A): 1.9X fold; S.I. CQ ([2]; Gen. I84V L90M): 3.6; Fen. CQ (fold) ([2]; Gen. I84V L90M): 1.3X fold; S.I. CQ ([2]; Gen. M46I G48V L63P L90M): 6.7; Fen. CQ (fold) ([2]; Gen. M46I G48V L63P L90M): 1.1X fold; S.I. CQ ([2]; Gen. V82A L90M): 6; Fen. CQ (fold) ([2]; Gen. V82A L90M): 0.8X fold; EC50 ([3]; Gen. K101D K103N): 2800 nM; EC50 ([3]; Gen. K103N V108D): 2200 nM; EC50 ([3]; Gen. K103N Y181C): 2500 nM; EC50 ([3]; Gen. K103N): 2200 nM; EC50 ([3]; Gen. L100I K103N): 3200 nM; EC50 ([3]; Gen. Y181C): 1800 nM; S.I. CQ ([3]; Gen. K101D K103N): 7.8; Fen. CQ (fold) ([3]; Gen. K101D K103N): 1.8X fold; S.I. CQ ([3]; Gen. K103N V108D): 6.8; Fen. CQ (fold) ([3]; Gen. K103N V108D): 1.4X fold; S.I. CQ ([3]; Gen. K103N Y181C): 8; Fen. CQ (fold) ([3]; Gen. K103N Y181C): 1.6X fold; S.I. CQ ([3]; Gen. K103N): 8.5; Fen. CQ (fold) ([3]; Gen. K103N): 1.4X fold; S.I. CQ ([3]; Gen. L100I K103N): 6.2; Fen. CQ (fold) ([3]; Gen. L100I K103N): 2.1X fold; S.I. CQ ([3]; Gen. Y181C): 8.5; Fen. CQ (fold) ([3]; Gen. Y181C): 1.2X fold; EC50 ([4]; PBMC, Gen. D67N K70R T215F K219Q, read-out: E.C.50 CQ): 2 µM; EC50 ([4]; PBMC, Gen. D 67 Ns K 70N T215F K219Q, read-out: E.C.50 CQ): 3 µM; EC50 ([4]; PBMC, Gen. K70R T215F K219Q, read-out: E.C.50 CQ): 1.8 µM; EC50 ([4]; PBMC, Gen. M41I M184V L210W R221K T215Y, read-out: E.C.50 CQ): 1.5 µM; EC50 ([4]; PBMC, Gen. M41I T215Y, read-out: E.C.50 CQ): 2 µM; EC50 ([4]; PBMC, Gen. M41L D67N K70RM 184V T215F, read-out: E.C.50 CQ): 2.5 µM; EC50 ([4]; read-out: E.C.50 CQ (uM), PBMC, Gen. M41LD 76N K70R T215Y): 3 µM; S.I. CQ [4, 7]: 4; CQ (fold) [4, 7]: 1.1X fold; S.I. CQ [4, 8]: 3; CQ (fold) [4, 8]: 2X fold; S.I. CQ ([4]; PBMC, Gen. K70R T215F K219Q): 5.5; CQ (fold) ([4]; PBMC, Gen. K70R T215F K219Q): 1.1X fold; S.I. CQ [4, 9]: 6; CQ (fold) [4, 9]: 0.8X fold; S.I. CQ ([4]; PBMC, Gen. M41I T215Y): 4; CQ (fold) ([4]; PBMC, Gen. M41I T215Y): 1.1X fold; S.I. CQ [4, 10]: 3.6; CQ (fold) [4, 10]: 1.3X fold; S.I. CQ [4, 11]: 3.2; CQ (fold) [4, 11]: 1.6X fold; S.I. CQ ([5]; Gen. D30N): 4.2; Fen. CQ (fold) ([5]; Gen. D30N): 1.3X fold; S.I. CQ ([5]; Gen. V82A): 5; Fen. CQ (fold) ([5]; Gen. V82A): 1.5X fold; EC50 ([5]; Gen. D30N): 2500 nM; EC50 ([5]; Gen. V82A): 2700 nM; EC50 ([6]; Gen D67N K70R M184V T215Y): 2500 nM; EC50 ([6]; Gen D67N K70R T215F K70R): 3000 nM; EC50 ([6]; Gen K70R T215F K219Q): 1800 nM; EC50 [6, 12]: 2000 nM; EC50 ([6]; Gen M41I T215F): 2000 nM; EC50 ([6]; Gen M41L D67N K70R M184V T215Y): 2500 nM; EC50 ([6]; Gen M41L D67N K70R T215Y): 3000 nM; S.I. CQ ([6]; Gen D67N K70R M184V T215Y): 4.5; Fen. CQ (fold) ([6]; Gen D67N K70R M184V T215Y): 1.5X fold; S.I. CQ ([6]; Gen D67N K70R T215F K70R): 3; Fen. CQ (fold) ([6]; Gen D67N K70R T215F K70R): 1.3X fold; S.I. CQ ([6]; Gen K70R T215F K219Q): 5.5; Fen. CQ (fold) ([6]; Gen K70R T215F K219Q): 0.7X fold; S.I. CQ [6, 12]: 4.5; Fen. CQ (fold) [6, 12]: 1.1X fold; S.I. CQ ([6]; Gen M41I T215F): 4; Fen. CQ (fold) ([6]; Gen M41I T215F): 1.1X fold; S.I. CQ ([6]; Gen M41L D67N K70R M184V T215Y): 3.6; Fen. CQ (fold) ([6]; Gen M41L D67N K70R M184V T215Y): 1.3X fold; S.I. CQ ([6]; Gen M41L D67N K70R T215Y): 3.2; Fen. CQ (fold) ([6]; Gen M41L D67N K70R T215Y): 1.2X fold
